Earlier results as cited in US20050215571A1, “Therapeutic combination for cognititon enhancement and psychotic disorders” (Pfizer Inc., priority 2003, published 2005).

Assays:
[1] = not given; remark: listed apart in the source

half-life (in vivo): 6 to 7 h
Oral bioavailability (oral, taken with food): approximately 60%
protein binding [1]: extensive
Compound: O=C1Cc2cc(CCN3CCN(c4nsc5ccccc45)CC3)c(Cl)cc2N1 [Ziprasidone, 5-[2-[4-(1,2-benzisothiazol-3-yl)piperazin-1-yl]ethyl]-6-chloroindolin-2-one]
